How the values were obtained:
[1] = tested on: epididymal white adipose tissue of HFD-fed mice; assay: Gene expression (mRNA) in epididymal white adipose tissue of HFD-fed mice; format: in vivo
Procedure: (§1) A study was conducted to determine if inhibiting Slc7a5 prevents the metabolic response of adipocyte to excess […] intake and obesity. Mice fed with HFD for 3 months were then injected intraperitoneally with either (a) JPH203, a potent Slc7a5 inhibitor, at a dose of 25 mg/kg, or (b) PBS (vehicle) as control, for 15 consecutive days while on HFD (Days 1-15). Mice fed with a normal diet and receiving no injection were included as a comparator.
To determine if JPH203 affected adipose tissue function, the epididymal and inguinal white adipose tissues were dissected and analyzed 15 days after treatment.

HFD-fed mice [2] = assay: Serum levels of adipokine and cytokines by ELISA in HFD-fed mice; format: in vivo; details: 25 mg/kg intraperitoneally, 15 days, vs control HFD-fed mice
Procedure: Panels A-G show serum levels of leptin, insulin like growth factor 1 (IGF1), monocyte chemoattractant protein-1 (MCP1), vascular endothelial growth factor (VEGF), interleukin 1 alpha (ILla), interleukin 1 beta (IL1β), interleukin 6, and tumor necrosis factor alpha (TNFa), respectively, in normal diet-fed mice, HFD-fed mice injected with JPH203, and control HFD-fed mice. [“AU”=arbitrary unit; data shown as mean±SEM and significance was determined by one-way analysis of variance (ANOVA) or unpaired two-tailed t-test; *P<0.05, **P<0.01; ***P<0.001, ****P<0.0001.]
as §1
Obesity is correlated with chronically high levels of several cytokines which produced primarily by adipose tissues, which play a role in chronic inflammatory states.

HFD-fed mice [3] = assay: Glucose homeostasis and intraperitoneal glucose tolerance testing in HFD-fed mice; format: in vivo
Procedure: [data shown as mean±SEM and significance was determined by one-way ANOVA (for analysis shown in Panels A, B, C, D, and G) or multiple unpaired t-test (for analysis shown in Panel F); *P<0.05, **P<0.01, ***P<0.001.]
as §1
Mice that were obese due to HFD were hyperglycemic and hyperinsulinemia regardless of fed or fasting status (see FIG. 9, Panels A-D).

[4] = tested on: adipose tissues of HFD-fed mice; assay: Nile red and Mitotracker staining of adipose tissues of HFD-fed mice; format: in vivo
Procedure: [“Epi fat”=epididymal white adipose tissue; “SubQ”=inguinal white adipose tissue; “iBAT”=interscapular brown adipose tissue; data shown as mean±standard error (SE) and significance was determined by one-way ANOVA or unpaired two-tailed t-test; *P<0.05, **P<0.01.]
as §1

[5] = tested on: differentiated adipocytes 3T3L1 co-cultured with macrophage (RAW 264.7 cells); assay: Adipogenesis in co-culture of adipocyte 3T3L1 and macrophage RAW 264.7 cells; format: cell-based
Procedure: [Data shown as mean±SE and significance was determined by two-way ANOVA (for analysis shown in Panel B) and unpaired two-tailed t-test (for analysis shown in Panels D-G; *P<0.05, ***P<0.001, ****P<0.0001.]
A study was conducted to determine which aspects of the adipocyte lineage was affected by inhibition of Slc7a5. To this end, pre-adipocytes or differentiated adipocytes 3T3L1 were co-cultured in the presence of macrophage (RAW 264.7 cells). The experimental design is illustrated in FIG. 10, Panel A.
The study examined expression of PPARγ and mTOR, and Nile red stained lipid droplets, which are indicators of adipogenesis and are shown to increase in differentiated adipocytes compared to preadipocytes.

HFD-fed mice [6] = assay: Toxicity of JPH203 treatment in HFD-fed mice (liver and kidney function, activity, organ mass, whole blood counts); format: in vivo; details: 25 mg/kg intraperitoneally
Procedure: as §1
In addition, liver function (AST, ALT), kidney function (creatinine), and effect on bone marrow and immune response (whole blood counts) were tested to examine the toxicity of the pharmacological JPH203 treatment. […] Also, there was no effect of JPH203 treatment on liver, heart, or kidney weight (see FIG. 3, Panel E).

HFD-fed mice [7] = assay: Body weight, fat mass and food intake in HFD-fed mice injected with JPH203; format: in vivo; details: 25 mg/kg intraperitoneally
Procedure: as §1

[8] = epididymal adipose tissues, vs control HFD-fed mice
[9] = epididymal white adipose tissue, 15 days after treatment
[10] = epididymal white adipose tissue, 15 days after treatment, vs control HFD-fed mice
[11] = HFD-fed mice injected with JPH203
[12] = HFD-fed mice injected with JPH203 vs control HFD-fed mice
[13] = epididymal and inguinal white adipose tissues, vs control HFD-fed mice
[14] = co-culture of 3T3L1 and RAW 264.7 cells
[15] = fully differentiated adipocytes as compared to the preadipocytes, in the presence of macrophages

Nc1cc(COc2c(Cl)cc(C[C@H](N)C(=O)O)cc2Cl)c2oc(-c3ccccc3)nc2c1 [JPH203, (S)-2-Amino-3-(4-((5-amino-2-phenylbenzo[d]oxazol-7-yl)methoxy)-3,5-dichlorophenyl)propanoic acid]
genes related to anti-adipogenic factor [1, 8]: upregulated
genes related to energy dissipation/fatty acid β oxidation [1, 8]: upregulated
genes related to fatty acid uptake [1, 8]: upregulated
genes related to glucose uptake/glycolysis [1, 8]: downregulated
genes related to glyceroneogenesis/fatty acid synthesis [1, 8]: downregulated
genes related to lipogenesis [1, 8]: downregulated
genes related to lipolysis [1, 8]: downregulated
genes related to pentose phosphate pathway (NADPH production) [1, 8]: downregulated
Hif2α expression (downstream target of mTOR signaling) [1, 9]: decreased
Slc7a5 expression [1, 9]: did not change
anti-inflammatory arginase 1 (Arg1) gene expression [1, 9]: increased
proinflammatory nitric oxide synthase 2 (Nos2/Inos) gene expression [1, 9]: reduced
mRNA levels for beiging and browning markers [1, 10]: increased
mRNA levels for general adipogenic markers [1, 10]: decreased
mRNA levels for white adipogenic markers [1, 10]: decreased
serum level of IGF1 (HFD-fed mice [2]): decreased
serum level of IL1α (HFD-fed mice [2]): decreased
serum level of IL1β (HFD-fed mice [2]): decreased
serum level of IL6 (HFD-fed mice [2]): increased
serum level of MCP1 (HFD-fed mice [2]): decreased
serum level of TNFα (HFD-fed mice [2]): decreased
serum level of VEGF (HFD-fed mice [2]): decreased
serum level of leptin (HFD-fed mice [2]): decreased
reduction in blood glucose concentration after glucose administration (IPGTT) (HFD-fed mice [3]; [11]): significantly faster reduction
correlation of weight loss with decreased baseline glucose (HFD-fed mice [3]; HFD-fed mice injected with JPH203 compared with control HFD-fed mice): positively correlated
fasting glucose (HFD-fed mice [3]; [12]): lower
fed glucose (HFD-fed mice [3]; [12]): lower
glucose tolerance (HFD-fed mice [3]; [12]): improved
mitochondrial biogenesis in interscapular brown adipose tissues (Mitotracker staining) [4, 11]: significantly increased
adipocyte lipid content (Nile red staining) [4, 13]: lower lipid content
adipocyte size (Nile red staining) [4, 13]: smaller sized adipocytes
adipocyte differentiation [5, 14]: decreased
cell survival / cell death [5, 14]: does not affect cell survival
lipid droplets (Nile red stained) [5, 14]: reduction
PPARγ expression [5, 15]: reduced
mTOR expression [5, 15]: reduced
Creatine levels (kidney function) (HFD-fed mice [6]; 15 days): in the normal ranges
complete blood counts (CBC): effect on bone marrow and immune response (HFD-fed mice [6]; 15 days): no significant effect
mice activity (running wheel experiment) (HFD-fed mice [6]; 15 days): does not decrease mice activity
AST serum level (HFD-fed mice [6]; 15 days, normal is 13-35 IU/L): in the normal range
ALT serum level (HFD-fed mice [6]; 15 days, normal is 37-88 IU/L): in the normal range
Creatine levels compared with control HFD-fed mice (HFD-fed mice [6]; 15 days, vs control HFD-fed mice): significantly less
liver, heart, or kidney weight (HFD-fed mice [6]; day 15): no effect
mass of interscapular brown adipose tissue and epididymal and inguinal white adipose tissue, normal fed mice compared to HFD-fed mice injected with JPH203 (HFD-fed mice [7]; at 15 days): not significantly less
body weight (HFD-fed mice [7]; HFD-fed mice, after 15 days, vs HFD-fed mice injected with vehicle (PBS)): significant weight reduction
mass of epididymal white adipose tissue (HFD-fed mice [7]; HFD-fed mice, at 15 days, vs control HFD-fed mice): significantly less
appetite suppression (food and water consumption) as contributor to weight loss (HFD-fed mice [7]; HFD-fed mice, over 15 days): not a major contributing factor

— US20250262190A1, “USE OF LAT1 INHIBITORS TO TREAT OBESITY” (Georgetown University, priority 2022, published 2025)
